Like-named read-outs stand apart in the source and are kept apart here.
Experiments:
Assay in all cases: cells
[1] = tested on: Ba/F3-FGFR1-transfected cells
Description: Ba/F3-FGFR1 (Minus IL3 or Plus IL3) (Cellular Proliferation Assay)
(§1) Cells were put in an incubator at 37° C. and 5% CO2.
(§2) As a counterscreen the same experiment was performed in the presence of 10 ng/ml murine IL3.

[2] = tested on: Ba/F3-KDR-transfected cells
Description: Ba/F3-KDR (Minus IL3 or Plus IL3) (Cellular Proliferation Assay)
as §1, §2

[3] = tested on: Ba/F3-Flt3-transfected cells; settings: read-out: BAF3-FLT3 (MIN IL3) pIC50 (converted)
Description: Ba/F3-Flt3 (Minus IL3 or Plus IL3) (Cellular Proliferation Assay)
as §1, §2

[4] = read-out: BAF3-KDR (MIN IL3) pIC50 (converted)
[5] = read-out: BAF3-KDR (PLUS IL3) pIC50 (converted)

Structure (SMILES)	IC50 [2, 4] [µM]	IC50 [2, 5] [µM]	IC50 ([3]; 24 h) [µM]	further results
COCCN(c1cc(OC)cc(OC)c1)c1cc2cc(-c3cnn(C)c3)cnc2cn1 [Compound 69]	> 10	> 10	–	IC50 ([1]; read-out: BAF3-FGFR1 (MIN IL3) pIC50 (converted)): 8.13 µM; IC50 ([1]; read-out: BAF3-FGFR1 (PLUS IL3) pIC50 (converted)): > 10 µM
COc1cc(OC)cc(N(CCCO)c2ccc3ncc(-c4cnn(C)c4)cc3n2)c1 [Compound 2]	–	–	> 10	–
COc1cc(OC)cc(N(CCNC(C)C)c2cc3cc(-c4cnn(C)c4)cnc3cn2)c1 [Compound 68]	> 10	> 10	–	–
COc1cc(OC)c(F)c(N(Cc2nccn2S(=O)(=O)N(C)C)c2ccc3ncc(-c4cnn(C)c4)cc3n2)c1F [Compound 64]	–	–	–	IC50 [3]: 2.45 µM
COc1cc(OC)cc(N(CCO)c2ccc3ncc(-c4cnn(C)c4)cc3n2)c1 [Compound 1]	–	–	8.91	–
CNCCN(c1cc2cc(-c3cnn(C)c3)cnc2cn1)c1cc(OC)cc(OC)c1F [Compound 73]	> 10	> 10	–	–
COc1cc(OC)c(F)c(N(Cc2ncc[nH]2)c2ccc3ncc(-c4cnn(C)c4)cc3n2)c1F [Compound 65]	–	–	–	IC50 [3]: 3.55 µM
COc1cc(OC)c(F)c(N(Cc2nccn2S(=O)(=O)N(C)C)c2cc3cc(-c4cnn(C)c4)cnc3cn2)c1 [Compound 76]	> 10	> 10	–	–
COc1cc(OC)cc(N(Cc2ncc[nH]2)c2cc3cc(-c4cnn(C)c4)cnc3cn2)c1 [Compound 67]	> 10	> 10	–	–
COc1cc(OC)c(F)c(N(Cc2ncccn2)c2ccc3ncc(-c4cnn(C)c4)cc3n2)c1F [Compound 14]	–	–	–	IC50 [3]: 7.76 µM
COc1cc(OC)cc(N(CCN(CCNC(C)C)C(C)C)c2ccc3ncc(-c4cnn(C)c4)cc3n2)c1 [Compound 6]	–	–	5.01	–
COc1cc(OC)c(F)c(N(Cc2ncccn2)c2ccc3ncc(-c4cnn(C)c4)cc3n2)c1 [Compound 27]	–	–	–	IC50 [3]: > 10 µM
COCCN(c1cc(OC)cc(OC)c1)c1ccc2ncc(-c3cnn(C)c3)cc2n1 [Compound 3]	–	–	> 10	–
COc1cc(/N=c2\ccc3ncc(-c4cnn(C)c4)cc3n2CCNC(C)C)cc(OC)c1 [Compound 5]	–	–	> 10	–
COc1cc(OC)c(F)c(N(CCCO)c2cc3cc(-c4cnn(C)c4)cnc3cn2)c1 [Compound 75]	> 10	> 10	–	–
COc1cc(OC)c(F)c(N(CCCO)c2ccc3ncc(-c4cnn(C)c4)cc3n2)c1F [Compound 22]	–	–	–	IC50 [3]: 3.89 µM
COc1cc(OC)cc(N(Cc2ncc[nH]2)c2ccc3ncc(-c4cnn(C)c4)cc3n2)c1 [Compound 10]	–	–	> 10	–
COc1cc(OC)cc(N(CCNC(C)C)c2ccc3ncc(-c4cnn(C)c4)cc3n2)c1 [Compound 4]	–	–	7.94	–
C#CCN(c1cc(OC)cc(OC)c1)c1ccc2ncc(-c3cnn(C)c3)cc2n1 [Compound 8]	–	–	> 10	–
COc1cc(OC)cc(N(Cc2nccn2S(=O)(=O)N(C)C)c2cc3cc(-c4cnn(C)c4)cnc3cn2)c1 [Compound 66]	> 10	> 10	–	–
COc1cc(OC)c(F)c(N(Cc2ncc[nH]2)c2cc3cc(-c4cnn(C)c4)cnc3cn2)c1 [Compound 77]	> 10	> 10	–	–
COc1cc(OC)cc(N(Cc2nccn2S(=O)(=O)N(C)C)c2ccc3ncc(-c4cnn(C)c4)cc3n2)c1 [Compound 7]	–	–	> 10	–

From patent US9757364B2, “Naphthyridine derivative compounds” (ASTEX THERAPEUTICS LIMITED, priority 2011, dated 2017)
